Laboratory results as given in patent US20180099937A1, “NOVEL ARYL-CYANOGUANIDINE COMPOUNDS” (Bayer Pharma Aktiengesellschaft, priority 2015, published 2018).

Target: SMYD2 (Homo sapiens, UniProt Q9NRG4)
Assay: Scintillation Proximity Assay (SPA) for detection of SMYD2 enzymatic inhibition
Type: biochemical
Parameters: The SMYD2 full length enzyme was produced in-house by expression (with an N-terminal 6× His tag) in E. coli; 6xHis (N); made in house; host or cells: E. coli
Conditions: SMYD2 full length enzyme, p53 Peptide substrate 1.0 μM, 3H-SAM 60 nM; read-out: IC50 [mol/l] (SPA Assay)
Description: 1.1 Scintillation Proximity Assay (SPA) for Detection of SMYD2 Enzymatic Inhibition
SMYD2 inhibitory activities of the compounds described in the present invention were quantified using a scintillation proximity assay (SPA) which measures methylation by the enzyme of the synthetic, biotinylated peptide Btn-Ahx-[…]—Amid×TFA (Biosyntan) derived from p53 and referred to from here on as “p53 Peptide”. The SMYD2 full length enzyme was produced in-house by expression (with an N-terminal 6× His tag) in E. coli and purification by affinity chromatography on a Ni-NTA Sepharose column followed by a size exclusion chromatography step on a Superdex 200 16/60 column (GE Healthcare).
In a typical assay 11 different concentrations of each compound (0.1 nM, 0.33 nM, 1.1 nM, 3.8 nM, 13 nM, 44 nM, 0.15 μM, 0.51 μM, 1.7 μM, 5.9 μM and 20 μM) were tested in duplicate within the same microtiter plate. To this end, 100-fold concentrated compound solutions (in DMSO) were previously prepared by serial dilution (1:3.4) of 2 mM stocks in a clear low volume 384-well source microliter plate (Greiner Bio-One), from which 50 nl of compound solutions were transferred into a white low volume test microtiter plate from the same supplier. Subsequently, 2.5 μl SMYD2 in aqueous assay buffer [50 mM Tris/HCl pH 9.0 (AppliChem), 1 mM dithiothreitol (DTT, Sigma), 0.01% (w/v) bovine serum albumine (BSA, Sigma), 0.0022% (v/v) Pluronic (Sigma)] were added to the compounds in the test plate to a final enzyme concentration of —typically—3 nM (this parameter was adjusted depending on the activity of the enzyme lot in order to be within the linear dynamic range of the assay). The samples were then incubated for 15 min at 22° C. to allow pre-equilibration of the putative enzyme-inhibitor complexes before the start of the methylation reaction, which was initiated by the addition of 2.5 μl 2-fold concentrated solution (in assay buffer) of titriated S-Adenosyl-L-Methionine (3H-SAM, Perkin Elmer, final concentration: 60 nM) and p53 Peptide substrate (final concentration: 1.0 μM). The resulting mixture (5 μl final volume) was shortly centrifuged (2 min., 1500 rpm) and incubated at 22° C. during 30 min. Thereupon the reaction was stopped by adding 3 μl of Streptavidin PS SPA imaging beads (Perkin Elmer, final concentration of 3.12 μg/μl) and “cold” SAM (AK Scientific, 25 μM final concentration) for non-specific binding reduction. Plates containing the stopped reaction were sealed with transparent adhesive foil (Perkin Elmer), centrifuged (2 min., 1500 rpm), and further incubated for —at least—1 h at RT (or overnight at 4° C.) in order to allow the SPA signals to develop. Subsequently, the amount of product was evaluated by measuring the energy transfer from the β-particles emitted by the 3H-labeled substrate to the Europium scintillator co-polymerized in the polystyrene matrix of the PS imaging beads, using the standard settings for this purpose of a Viewlux (Perkin-Elmer) CCD plate imaging device (emission filter 613/55 (IFP). The resulting scintillation counts were taken as indicator for the amount of methylated peptide per well. The data were normalised using two sets of control wells (typically 16 each) for high−(=enzyme reaction with DMSO instead of test compound=0% =Minimum inhibition) and low−(=all assay components without enzyme=100% =Maximum inhibition) SMYD2 activity. IC50 values were calculated by fitting the normalized inhibition data to a 4-parameter logistic equation using the “Screener” analysis software from Genedata.

Chain of SMYD2 (Q9NRG4 whole entry): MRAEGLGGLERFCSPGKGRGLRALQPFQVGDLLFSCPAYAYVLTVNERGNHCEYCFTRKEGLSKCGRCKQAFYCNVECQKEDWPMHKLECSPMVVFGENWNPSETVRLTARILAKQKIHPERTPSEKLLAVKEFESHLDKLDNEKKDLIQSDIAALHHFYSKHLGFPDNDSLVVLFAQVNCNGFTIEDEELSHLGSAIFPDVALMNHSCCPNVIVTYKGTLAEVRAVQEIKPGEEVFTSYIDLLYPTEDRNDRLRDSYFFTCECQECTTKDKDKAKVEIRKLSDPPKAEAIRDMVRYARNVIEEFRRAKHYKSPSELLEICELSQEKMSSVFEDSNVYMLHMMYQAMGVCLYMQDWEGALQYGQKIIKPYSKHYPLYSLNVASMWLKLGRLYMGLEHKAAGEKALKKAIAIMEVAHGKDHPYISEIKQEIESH

Point of comparison: `N#C/N=C(/Nc1cccc(OC(F)F)c1)N1CC(NC(=O)C2(N)CCCC2)C(c2ccc(Cl)c(Cl)c2)=N1` (racemic) [Example 10, rac-1-Amino-N-[1-{N′-cyano-N-[3-(difluoromethoxy)phenyl]carbamimidoyl}-3-(3,4-dichlorophenyl)-4,5-dihydro-1H-pyrazol-4-yl]cyclopentanecarboxamide], IC50 748 nM. Against it:
- CCN(C(=O)[C@H]1CCCN1)C1CN(/C(=N\C#N)Nc2cc(OC)ccc2C)N=C1c1ccc(Cl)c(Cl)c1 (mixture of isomers) [Example 34, N-{1-[N′-Cyano-N-(5-methoxy-2-methylphenyl)carbamimidoyl]-3-(3,4-dichlorophenyl)-4,5-dihydro-1H-pyrazol-4-yl}-N-ethyl-D-prolinamide] — within 1.5-fold, 615 nM
- CCN(C(=O)[C@H]1CCCN1)C1CN(/C(=N\C#N)Nc2cccc(OCC(F)(F)F)c2)N=C1c1ccc(Cl)c(Cl)c1 (mixture of isomers) [Example 35, N-[1-{N′-Cyano-N-[3-(2,2,2-trifluorelethoxy)phenyl]carbamimidayl}-3-(3,4-dichlorophenyl)-4,5-dihydro-1H-pyrazol-4-yl]-N-ethyl-D-prolinamide] — within 1.5-fold, 505 nM
- CCN(C(=O)[C@H]1CCCN1)C1CN(/C(=N\C#N)Nc2cccc(OC(F)F)c2)N=C1c1ccc(Cl)c(C)c1 (mixture of isomers) [Example 37, N-[3-(4-Chloro-3-methylphenyl)-1-{N′-cyano-N-[3-(difluoromethoxy)phenyl]carbamimidoyl}-4,5-dihydro-1H-pyrazol-4-yl]-N-ethyl-D-prolinamide] — 40-fold lower, 18.7 nM
- CCN(C(=O)[C@@H]1CCCC[C@@H]1N)C1CN(/C(=N\C#N)Nc2cccc(OC(F)F)c2)N=C1c1ccc(Cl)c(Cl)c1 (mixture of isomers) [Example 43, (1R,2S)-2-amino-N-[1-{N′-cyano-N-[3-(difluoromethoxy)phenyl]carbamimidoyl}-3-(3,4-dichlorophenyl)-4,5-dihydro-1H-pyrazol-4-yl]-N-ethylcyclohexanecarboxamide] — 1.7-fold lower, 432 nM
- CCN(C(=O)[C@@H]1CCC[C@@H]1N)C1CN(/C(=N\C#N)Nc2cc(OC)cc(C(F)(F)F)c2)N=C1c1ccc(Cl)c(Cl)c1 (mixture of isomers) [Example 45, (1R,2S)-2-Amino-N-[1-{N′-cyano-N-[3-methoxy-5-(trifluoromethyl)phenyl]carbamimidoyl}-3-(3,4-dichlorophenyl)-4,5-dihydro-1H-pyrazol-4-yl]-N-ethylcyclopentanecarboxamide] — 3.1-fold lower, 239 nM
- N#C/N=C(/Nc1cccc(OC(F)F)c1)N1CC(NC(=O)C(N)(C2CC2)C2CC2)C(c2ccc(Cl)c(Cl)c2)=N1 (racemic) [Example 8, rac-2-Amino-N-[1-{N′-cyano-N-[3-(difluoromethoxy)phenyl]carbamimidoyl}-3-(3,4-dichlorophenyl)-4,5-dihydro-1H-pyrazol-4-yl]-2,2-dicyclopropylacetamide] — within 1.5-fold, 513 nM
- N#C/N=C(/Nc1cccc(OC(F)F)c1)N1CC(NC(=O)C2(N)CCC2)C(c2ccc(Cl)c(Cl)c2)=N1 (racemic) [Example 9, rac-1-Amino-N-[1-{N′-cyano-N-[3-(difluoromethoxy)phenyl]carbamimidoyl}-3-(3,4-dichlorophenyl)-4,5-dihydro-1H-pyrazol-4-yl]cyclobutanecarboxamide] — within 1.5-fold, 603 nM
- N#C/N=C(/Nc1cccc(OC(F)F)c1)N1CC(NC(=O)C2(N)CCCCC2)C(c2ccc(Cl)c(Cl)c2)=N1 (racemic) [Example 11, rac-1-Amino-N-[1-{N′-cyano-N-[3-(difluoromethoxy)phenyl]carbamimidoyl}-3-(3,4-dichlorophenyl)-4,5-dihydro-1H-pyrazol-4-yl]cyclohexanecarboxamide] — 1.8-fold higher, 1330 nM
- CCN(C(=O)[C@H]1C[C@@H](F)CN1)C1CN(/C(=N\C#N)Nc2cc(F)cc(OC(F)(F)F)c2)N=C1c1ccc(Cl)c(Cl)c1 (mixture of isomers) [Example 25, (4R)-N-[1-{N′-Cyano-N-[3-fluoro-5-(trifluoromethoxy)phenyl]carbamimidayl}-3-(3,4-dichlorophenyl)-4,5-dihydro-1H-pyrazol-4-yl]-N-ethyl-4-fluoro-D-prolinamide] — within 1.5-fold, 519 nM
- CCN(C(=O)[C@@H]1CCC[C@@H]1N)C1CN(/C(=N\C#N)Nc2cccc(OC(F)F)c2)N=C1c1ccc(Cl)c(Cl)c1 (relative stereo) [Example 42, Rel-(1R,2S)-2-amino-N-[1-{N′-cyano-N-[3-(difluoromethoxy)phenyl]carbamimidoyl}-3-(3,4-dichlorophenyl)-4,5-dihydro-1H-pyrazol-4-yl]-N-ethylcyclopentanecarboxamide] — 3.9-fold lower, 194 nM
- CCN(C(=O)[C@H]1CCCN1)C1CN(/C(=N\C#N)Nc2cccc(OC(F)F)c2)N=C1c1ccc(Cl)c(Cl)c1 (single isomer, unassigned) [Example 1.2, N-[1-{N′-Cyano-N-[3-(difluoromethoxy)phenyl]carbamimidoyl}-3-(3,4-dichlorphenyl)-4,5-dihydro-1H-pyrazol-4-yl]-N-ethyl-D-prolinamide] — 2.1-fold lower, 362 nM
- CCN(C(=O)[C@H]1C[C@@H](O)CN1)C1CN(/C(=N\C#N)Nc2cccc(OC(F)F)c2)N=C1c1ccc(Cl)c(Cl)c1 (single isomer, unassigned) [Example 3.2] — 3-fold higher, 2240 nM
- CCN(C(=O)[C@H]1C[C@@H](F)CN1)C1CN(/C(=N\C#N)Nc2cccc(OC(F)F)c2)N=C1c1ccc(Cl)c(Cl)c1 (single isomer, unassigned) [Example 4.1] — 19-fold lower, 39.9 nM
- CCN(C(=O)[C@H]1C[C@@H](F)CN1)C1CN(/C(=N\C#N)Nc2cccc(OC(F)F)c2)N=C1c1ccc(Cl)c(Cl)c1 (single isomer, unassigned) [Example 4.2] — within 1.5-fold, 663 nM
- CCN(C(=O)c1cccc(=O)[nH]1)C1CN(/C(=N\C#N)Nc2cccc(OC(F)F)c2)N=C1c1ccc(Cl)c(Cl)c1 (single isomer, unassigned) [Example 5.1, N-[1-{N′-Cyrano-N-[3-(difluoromethoxy)phenyl]carbamimidoyl}-3-(3,4-dichlorophenyl)-4,5-dihydro-1H-pyrazol-1-yl]-N-ethyl-6-oxo-1,6-dihydropyridine-2-carboxamide] — within 1.5-fold, 576 nM
- CCN(C(=O)c1cccc(=O)[nH]1)C1CN(/C(=N\C#N)Nc2cccc(OC(F)F)c2)N=C1c1ccc(Cl)c(Cl)c1 (single isomer, unassigned) [Example 5.2, N-[1-{N′-Cyano-N-[3-(difluoromethoxy)phenyl]carbamimidoyl}-3-(3,4-dichlorophenyl)-4,5-dihydro-1H-pyrazol-4-yl]-N-ethyl-6-oxo-1,6-dihydropyridine-2-carboxamide] — higher, > 20000 nM
- C[C@]1(C(=O)NC2CN(/C(=N\C#N)Nc3cccc(OC(F)F)c3)N=C2c2ccc(Cl)c(Cl)c2)CCCN1 (single isomer, unassigned) [Example 6.1, N-[1-{N′-Cyano-N-[3-(difluoromethoxy)phenyl]carbamimidoyl}-3-(3,4-dichlorophenyl)-4,5-dihydro-1H-pyrazol-1-yl]-2-methyl-D-prolinamide] — 62-fold lower, 12 nM
- C[C@]1(C(=O)NC2CN(/C(=N\C#N)Nc3cccc(OC(F)F)c3)N=C2c2ccc(Cl)c(Cl)c2)CCCN1 (single isomer, unassigned) [Example 6.2, N-[1-{N′-Cyano-N-[3-(difluoromethoxy)phenyl]carbamimidoyl}-3-(3,4-dichlorophenyl)-4,5-dihydro-1H-pyrazol-4-yl]-2-methyl-D-prolinamide] — 3.2-fold lower, 237 nM
